Measurements reported in patent US8835392B2, “Mimetic peptides and the use thereof in the form of 20S, 26S and immunoproteasome inhibitors” (Technische Universität, priority 2005, dated 2014).
Entries after “also recorded” stand apart in the source; their conditions may differ. Where a SMILES comes first, the peptide text is derived from it. The star is where a group is joined. Cbz = O=C(OCc1ccccc1)*; Boc = CC(C)(C)OC(=O)*; OtBu = CC(C)(C)O*

Legend:
[1] = target: T1, 20S proteasome β2 trypsin-like activity (VGR-MCA) (Homo sapiens, UniProt P49720+Q99436); assay: Protease assay, trypsin-like activity of isolated 20S proteasomes; type: biochemical; details: isolated 20S proteasome; VGR-MCA 50 μM; 15 min pre-incubation; read-out: IC50 β2 Trypsin-like (R)
T1 construct: Proteasomes were isolated from red blood cells; from tissue; host or cells: red blood cells
Procedure: (§1) Proteasomes were isolated from red blood cells. Cells were lysed with DTT (1 mM), and the stroma-free supernatant was loaded on DEAE-sepharose (Toyopearls). Proteasome was eluted with an NaCl-gradient in TEAD (20 mM TrisCl pH 7.4, 1 mM EDTA, 1 mM azide, 1 mM DTT) of 100 to 300 mM NaCl. Proteasome was concentrated using ammonium sulfate-precipitation (between 40 and 70% saturation) and was separated in a 10-40% sucrose-gradient through centrifugation at 40.000 rpm for 16 hours (SW40; L7, Beckman & Coulter). Finally, the proteasomes were purified on a MonoQ-column and eluted with an NaCl-gradient at about 280 mM NaCl. The fractions containing purified proteasome were dialysed against 50 mM NaCl in TEAD and stored on ice. The purity was determined using SDS-PAGE.
(§2) Suc-LLVY-AMC, Z-VGR-AMC and LLE-AMC (BACHEM, Calbiochem) was used, in order to determine the chymotrypsin-like, trypsin-like or caspase-like (post-acidic)-activities of the proteasome. Substrate was incubated with proteasome at 37° C. in assay-buffer (20 mM Tris/Cl, pH 7.2, 1 mM EDTA, 1 mM DTT) for one hour. 100 ng proteasome was pre-incubated with 0.01-10 μM of the inhibitor for […]. The reaction was started by the addition of substrate (50 μM). The AMC as released was detected using fluorescence emission at 460 nm (excitation at 390 nm) using a TECAN-fluorimeter. The activity was calculated in fluorescence-units. The inhibition is depicted by IC50-values.
(§3) The effects thereof were compared with the one of the commonly used proteasomal inhibitor 3 (MG132). The chymotrypsin-like (Suc-LLVY-AMC), the trypsin-like (Bz-VGR-AMC), and the caspase-like (Z-LLE-AMC)-activities of 20S proteasomes were determined following incubation for one hour at 37° C.
(§4) The IC50-values form the inhibition of the proteasome were calculated at increasing concentrations of the inhibitor. The samples were pre-incubated for 15 min in ice. The assay was started through the addition of 50 μM of one of the following fluorogenic peptide substrates:
(§5) The release of MCA was determined at 460 nm emission (excitation 390 nm). The IC50-values as calculated for MG132 served as controls.

[2] = target: T2, 20S proteasome β1 caspase-like activity (LLE-MCA) (Homo sapiens, UniProt P28072+Q99436); assay: Protease assay, caspase-like activity of isolated 20S proteasomes; type: biochemical; details: isolated 20S proteasome; LLE-MCA 50 μM; 15 min pre-incubation; read-out: IC50 β1 Caspase-like (E)
T2 construct: Proteasomes were isolated from red blood cells; from tissue; host or cells: red blood cells
Procedure: as §1, §2, §3, §4, §5

[3] = test system: Human melanoma cells (MeWo); assay: Viability of human melanoma cells (MeWo), crystal violet-staining; type: cell-based; details: Homo sapiens, 72 h, read-out: concentration at rate of survival of 50% of the cells
Procedure: (§6) A, Human melanoma cells (MeWo) were treated with increasing concentrations of the compounds 15 or 3 (MG132) for 72 hours. The viability of the cells after the treatment with compound 15 (-♦-) and with MG132 (-□-) was detected by a crystal-violet-staining. B and C, MeWo cells were co-cultivated with the compounds 15 and 3 (MG132) for 24 hours. The cells were subsequently fixed in 70% ethanol, and treated with RNAse A. The DNA was stained with propidium iodide (5 μg/ml), and analysed by means of FACS (FACS Calibur flow cytometer; Beckton Dickinson). The statistical significance was detected by the chi-square-test. The relative distribution of the cells that were present in the G1-(black), in the S-(white) or in the G2 phase (hatched) of the cellular cycle is shown for both compounds as examined (15 in B and MG132 in C).
Human melanoma cells (MeWo) were incubated for 72 h with different concentrations of the inhibitor 15 and 28, and the viability of the cells was determined by means of crystal violet-staining (FIG. 8).

Fibroblasts = assay: Viability of fibroblasts (control); type: cell-based; details: Fibroblast, identical conditions (72 h), read-out: concentration for 50% reduction of the viability
[4] = test system: Human melanoma cells (MeWo); assay: Cell cycle arrest in MeWo cells, propidium iodide FACS; type: cell-based; details: 24 hours
Procedure: as §6
Human melanoma cells (MeWo) were with the compounds 15 and 3 (MG132) for 24 hours co-cultivated. The cells were washed with PBS, in 70% ethanol fixed and subsequently treated with RNAse A. The DNA was stained with propidium iodide (5 μg/ml) and analysed by means of flow-cytometry (FACS Calibur flow cytometer; Beckton Dickinson). The relative dispersion of the cells that were present in different phases of the cell cycle, could thus be detected. […] The statistical significance was detected by the Chi-square test.

[5] = target: T3, 20S proteasome β5 chymotrypsin-like activity (Suc-LLVY-AMC) (Homo sapiens, UniProt P20618+P28074); assay: Protease assay, chymotrypsin-like activity of isolated 20S proteasomes (LLVY substrate); type: biochemical; details: isolated 20S proteasome; LLVY-MCA 50 μM; 15 min pre-incubation; read-out: IC50 β5 Chymotrypsin-like (Y)
T3 construct: Proteasomes were isolated from red blood cells; from tissue; host or cells: red blood cells
Procedure: as §1, §2
The chymotrypsin-like (Suc-LLVY-AMC), the trypsin-like (Bz-VGR-AMC), and the caspase-like (Z-LLE-AMC)-activities of 20S proteasomes were determined following incubation for one hour at 37° C.
as §4, §5

20S proteasome = test system: T4, 20S proteasome; assay: Inhibition of the different proteasomal activities, summary statements; type: biochemical; details: isolated proteasomes, specific substrates
T4 construct: Proteasomes were isolated from red blood cells; from tissue; host or cells: red blood cells
Procedure: The specific inhibition of a single catalytic site is of specific interest for the development of drugs. Thus, the inhibition of the different proteasomal activities of the proteasome was analysed (see also example 6). The different cleavage-preferences of the proteasome were determined by the specific substrate for the hydrophobic (chymotrypsin-like), the trypsine-like and the caspase-like activities of isolated proteasomes.
as §2, §3

[6] = target: T5, proteasomal activity in HeLa-cells (Homo sapiens, UniProt P20618+P28074); assay: Intracellular inhibition of proteasomes in cultivated HeLa-cells; type: cell-based
T5 construct: endogenous in cells; host or cells: HeLa
Procedure: A, HeLa-cells were cultivated were 24 hours in the presence of the inhibitor. The protein concentration was determined in accordance with the cellular lysis according to Bradford in order to normalise the proteasomal activities to the different amounts of cells. Subsequently Complete (Roche) was added to all lysates, and the proteasomal activity was determined through the hydrolysis of Suc-LLVY-AMC. B, HeLa-cells was incubated with 1 μM of compound 15 for 2, 4, 6 and 24 hours. Cells were lysed, and proteins were separated through SDS-PAGE on a 10% gel, blotted to a PVDF-membrane. The accumulation of the poly-ubiquitinylated proteins was detected in a Western blot by an anti-ubiquitine-antibody (DAKO). C, HeLa-Cells were treated with increasing concentrations of the inhibitor 15, 25, 26, 27, and 28 for 24 hours (lane 1: without inhibitor; lane 2: 10 nM; lane 3: 100 nM and lane 4: 1 μM of the given inhibitor). Cells were lysed, proteins were separated on 15% gels, and the accumulation of the poly-ubiquitinylated proteins was controlled through Western blot.
HeLa-Cells were cultivated in RPMI, supplemented with 10% FCS and penicillin/streptomycin, at 5% CO2. Inhibitors were administered from 100×-stock solutions (in DMSO) at the final concentrations as indicated, and incubated with the cells for at least 20 hours.
Cultivated cells (HeLa) were harvested lysed and with 0.1% NP40 in TEAD in the presence of the commercially available protease-inhibitor-mixture Complete (Roche). The proteasomal activity was measured in 10 μl of the lysate using Suc-LLVY-AMC as a substrate. The protein content was quantified by means of Bradford (Protein assay; BioRad).
An application on cell cultures or animals requires that the concentrations of the inhibitors are chose as low as required. The specific proteasomal activity was reduced to a value of below 50% in cells that were treated with 1 μM of the compounds 15, 22, 25, 26, or 28, respectively (FIG. 6A).

[7] = test system: caspase 3/7 activation in HeLa-cells; assay: Apoptosis-assay, caspase 3/7-activity (Apo-One); type: cell-based; details: 1 μM, 20 hours
Procedure: HeLa-cells that were cultivated for 20 hours in the presence of the given inhibitor, were subsequently incubated for 2 hours with caspase-substrate (Apo-One; Promega). The activation of caspases 3/7 was measured at 538 nm (excitation at 485 nm). Treatment of the cells with TNFα or with MG132 served as control.
For this, 10,000 HeLa-cells pro well were seeded in a 96-well-plate, and co-cultivated for 20 hours with 1 μM of the inhibitors 7, 8, 11, 13-16, 18, 20-23 and 25-28. The induction of apoptosis was determined by measuring of the caspase 3/7-activity (Apo-One®-Assay, Promega).

[8] = target: T6, 20S proteasome β5 chymotrypsin-like activity (GLL-MCA) (Homo sapiens, UniProt P20618+P28074); assay: Protease assay, chymotrypsin-like activity of isolated 20S proteasomes (GLL substrate); type: biochemical; details: isolated 20S proteasome; GLL-MCA 50 μM; 15 min pre-incubation; read-out: IC50 β5 Chym.-like (L)
T6 construct: Proteasomes were isolated from red blood cells; from tissue; host or cells: red blood cells
Procedure: as §1, §2, §4, §5

Compound	IC50 [1]	IC50 [2]	IC50 [3]	IC50 (Fibroblasts)	concentration giving arrest of the cell cycle in the G2 phase [4]	IC50 [5]	which proteasomal activities are inhibited (site selectivity) (20S proteasome)	membrane-permeation ([6]; cultivated cells)	stability during the incubation periods ([6]; cultivated cells)	proteasomal activity reduced to ([6]; cultivated cells, remaining activity)	induction of apoptosis (activation of caspase 3 and 7) [7]	IC50 [8]	reduction of the specific proteasomal activity in cells ([6]; HeLa cells, 1 μM)
CC(C)C[C@@H](C=O)NC(=O)[C@H](CC(C)C)NC(=O)[C@H](CC(C)C)NC(=O)OCc1ccccc1 [Compound 3, reference compound] (Cbz-Leu-Leu-Leu-aldehyde)	9220 nM	2290 nM	35 nM	500 to 1000 nM	100 nM	–	–	–	–	–	–	–	–
CC(C)C[C@H](NC(=O)OCc1ccccc1)C(=O)N[C@@H](CC(C)C)C(=O)N[C@@H](CC(C)C)C(=O)C(=O)NCc1ccccc1 [Compound 26]	–	1720 nM	–	–	–	441 nM	inhibited the chymotryptic and the caspase-like sites	membrane-permeation	sufficient stability	10%	beginning apoptosis; also recorded: strong induction of apoptosis	–	–
CC(C)C[C@@H](C=O)NC(=O)[C@H](CC(=O)OC(C)(C)C)NC(=O)[C@H](CC(C)C)NC(=O)OC(C)(C)C [Compound 13] (Boc-Leu-Asp(OtBu)-Leu-aldehyde)	–	98 nM	–	–	–	–	inhibited all of the proteasomal hydrolytic activities	–	–	–	–	102 nM	markedly reduction
CC(C)C[C@@H](C=O)NC(=O)[C@H](CC(=O)O)NC(=O)[C@@H](N)CC(C)C [Compound 14] (H-Leu-Asp-Leu-aldehyde)	> 10000 nM	> 10000 nM	–	–	–	> 10000 nM	–	–	–	–	–	> 10000 nM	–
